{"source": "patent US20230140798A1", "about": "“SYNTHETIC PEPTIDES DIRECTED AGAINST THE METABOTROPIC GLUTAMATE RECEPTOR 5” (Lactocore, Inc., priority 2020, published 2023)", "key": {"Sprague-Dawley rats": {"system": "Sprague-Dawley rats", "assay": "Modified Porsolt Forced Swim test (FST), rats", "format": "in vivo", "settings": "i.p.; group name 5 mg/kg, test substance 20 mg/kg", "protocol": "As part of this modification, two tests are carried out within two days. The installation is a transparent cylinder, 30 cm high, 10 cm in diameter and filled with water (water temperature 21° C.-23° C.) to a mark at a height of 25 cm. On the first day, each animal is placed in the apparatus for ten minutes. Behavioral parameters are not recorded. The animals are placed in the cylinder for 10 minutes again on the second day. The duration of active (vigorous movements with all paws) and passive (weak strokes with hind legs) swimming, as well as immobility (immobilization) (Porsolt et al. (1977) Behavioral despair in mice: a primary screening test for antidepressants. Arch Int Pharmacodyn Ther. 229(2):327-36) are recorded. After each test, the rats are placed in a heated cage until dry. The behavioral indicators in this test are processed using the Real Timer Program developed by Open Science. The sequence of events, their duration, as well as conduct basic statistical data processing are recorded."}, "human mGluR5": {"molecular_target": "T1, human mGluR5 (Homo sapiens, UniProt P41594)", "T1 construct": "expressed in transfected cells; host or cells: CHO cells carrying pcDNA6/TR (T-REx system)", "T1 sequence (P41594 21-1212)": "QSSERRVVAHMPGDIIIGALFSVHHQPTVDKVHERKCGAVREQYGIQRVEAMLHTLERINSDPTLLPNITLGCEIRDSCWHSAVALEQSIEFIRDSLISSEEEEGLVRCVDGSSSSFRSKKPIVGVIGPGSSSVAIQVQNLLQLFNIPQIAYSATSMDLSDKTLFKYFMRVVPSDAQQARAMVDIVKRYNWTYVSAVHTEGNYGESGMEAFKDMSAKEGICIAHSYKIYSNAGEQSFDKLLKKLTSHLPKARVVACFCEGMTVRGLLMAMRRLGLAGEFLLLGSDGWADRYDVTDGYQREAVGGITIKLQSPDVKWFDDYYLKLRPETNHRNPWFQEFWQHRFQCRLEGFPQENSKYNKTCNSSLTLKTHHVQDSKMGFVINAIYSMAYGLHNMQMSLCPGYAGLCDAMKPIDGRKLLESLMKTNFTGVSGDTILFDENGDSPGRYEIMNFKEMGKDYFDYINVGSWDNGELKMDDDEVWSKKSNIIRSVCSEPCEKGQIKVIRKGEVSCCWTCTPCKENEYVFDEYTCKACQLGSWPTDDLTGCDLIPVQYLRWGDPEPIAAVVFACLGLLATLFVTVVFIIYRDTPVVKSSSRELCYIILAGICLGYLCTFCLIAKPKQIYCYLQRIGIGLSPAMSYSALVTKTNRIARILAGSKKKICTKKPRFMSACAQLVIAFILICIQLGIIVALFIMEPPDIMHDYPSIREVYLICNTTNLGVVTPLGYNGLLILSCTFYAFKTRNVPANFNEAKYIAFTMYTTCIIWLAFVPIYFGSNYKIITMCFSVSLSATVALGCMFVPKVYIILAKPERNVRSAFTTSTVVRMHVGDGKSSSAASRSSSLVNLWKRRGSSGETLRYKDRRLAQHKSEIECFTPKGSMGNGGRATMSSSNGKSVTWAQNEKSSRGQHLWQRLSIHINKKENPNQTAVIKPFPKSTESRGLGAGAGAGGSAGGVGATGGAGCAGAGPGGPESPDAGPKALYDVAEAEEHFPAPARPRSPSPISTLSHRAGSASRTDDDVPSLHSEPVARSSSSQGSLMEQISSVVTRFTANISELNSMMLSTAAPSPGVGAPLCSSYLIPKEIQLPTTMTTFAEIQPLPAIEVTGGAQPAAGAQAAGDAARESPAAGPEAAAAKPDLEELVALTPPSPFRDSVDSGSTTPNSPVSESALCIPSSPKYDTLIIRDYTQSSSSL", "assay": "Sodium glutamate-evoked [Ca^2+] responses in CHO-mGluR5 cells (calcium-flux imaging)", "format": "cell-based", "excerpt": "CHO-mGluR5 cells with tetracycline-induced stable expression of human mGluR5.\nThe CHO cell line stably expressing human mGluR5 was generated using T-Rex System (Thermo Fisher Scientific Inc., Waltham, Mass., USA) according to the manufacturer's' instructions. Briefly, cDNA encoding human mGluR5 was subcloned into inducible expression vector pcDNA4/TO and was transfected into CHO cells carrying regulatory vector pcDNA6/TR that expresses the tetracycline repressor. After 2 weeks of selection using Blasticidin (5 µg/ml) and zeocin (250 µg/ml), pools of cells were screened for the expression of mGluR5 in the agonist-induced [Ca^2+] uptake assay. Positive cells were expanded and used. mGluR5 expression was induced by adding tetracycline (up to 1 µg/ml) 16 h before testing.\nFluorescent assays were performed using NOVOstar (BMG LABTECH, Ortenberg, Germany). CHO-mGluR5 cells were seeded into black-walled clear-bottomed 96-well plates at a density of 75,000 cells per well (complete media without antibiotics and containing 1 µg/ml of tetracycline to induce receptor expression) and were cultured overnight at 37° C. […] After a 3-min incubation at 37° C., changes in cell fluorescence ([…]) were monitored before and after the addition of the mGLuR5 agonist (1 mM sodium glutamate—Glu-Na). […]"}, "Wistar rats [1]": {"system": "Wistar rats", "assay": "Dexamethasone test (DXMT), serum corticosterone, AFS model", "format": "in vivo", "settings": "4.5 mg/kg i.p. daily, after AFS; DXM 10 μg/kg", "method": "(§1) Stimulation was performed automatically using a software randomizer.\nEvaluation of the stress-evoked release of glucocorticoid hormones (corticosterone, an analog of cortisol in humans) and its suppression by the introduction of synthetic glucocorticosteroid was performed on the 9-10th day after the development of LH in a two-day dexamethasone test according to the scheme, taking into account the specificity of the circadian rhythm of HPA axis function in rats (Zhukov (1993). The dexamethasone suppression test in genetically different rats exposed to inescapable and escapable electric shocks. Psychoneuroendocrinology, 18(7), 467-474.].\nOn the first day of the test (DXMT1) at 10:00 AM, animals were injected (i.p.) with saline, then at 04:00 PM on the same day peripheral blood samples were taken to determine the basal level of the hormone, which caused stress, and 30 minutes after taking the rat from the cage and receiving initial sample, re-taken blood to measure hormone stress level.\nTo study the sensitivity of the HPA system to feedback signals, rats were injected with dexamethasone (DXM, 10 μg/kg, i.p.) the next day (DXMT2) at 10 AM. The procedure for taking blood from the tail vein was repeated after 6 and 6.5 hours. The corticosterone content was determined by enzyme-linked immunosorbent assay with reagent kits “Corticosterone-ELISA” (“Hema”, RF) in two parallel samples."}, "Wistar rats [2]": {"system": "Wistar rats", "assay": "Open Field test in Acute Foot Shock (AFS) stress model", "format": "in vivo", "settings": "4.5 mg/kg i.p. daily for ten days after AFS", "method": "(§2) KEDV (SEQ ID NO: 4) and RAHE (SEQ ID NO: 3) (Lactocore Inc.) were administered intranasally (i.n), daily for 10 days at a dose of 1 mg/kg and 5 mg/kg. Peptides were prepared freshly each day in saline. The solution for i.n. administration of 5 mg/kg in a volume of 15 μl (single administration) contained 1.3 mg KEDV (SEQ ID NO: 4) or RAHE (SEQ ID NO: 3), and a solution for intranasal administration of 1 mg/kg in a volume of 10 μl (single administration) contained 0.26 mg KEDV (SEQ ID NO: 4) or RAHE (SEQ ID NO: 3).\n(§3) The tetracyclic antidepressant Maprotiline (MAP, “Lyudiomil”), was used as a drug of comparison. Animals received a daily intraperitoneal injection (i.p) of MAP for ten days (M9651, Merck, in a dose of 4.5 mg/kg, dissolved in saline, 250 μl per administration).\nas §1\nThe OF test is a classic method for assessing the level of motor activity and exploratory behavior of rodents in new stressogenic conditions. The test was performed in a cage of 90×90×45 cm without a roof, the floor of which was laid out on squares 15×15 cm and lit from above by a 60 W lamp. On the 5th day after stressing in the LH model, the rat was placed in the center of the OF. The following parameters were measured for 5 minutes: latency to start of moving, the number of crossed squares, the duration of rears and freezing."}, "Wistar rats [3]": {"system": "Wistar rats", "assay": "Elevated Plus Maze test in Acute Foot Shock (AFS) stress model", "format": "in vivo", "method": "as §2, §3, §1\nEPM testing allows characterizing the behavior of rodents under the variable stress conditions, which makes it possible to assess the level of animal anxiety and anxiolytic effects of drugs. On the 6th day after the experimental exposure, the rats were tested one at a time for 5 min in the EPM installation, located at a height of 75 cm above the floor, and consisting of 2 open illuminated and 2 closed arms with exits. The time spent by the animal inside and outside the closed arms (in the open arms and in the center), the number of transitions between the arms, the number of stretch-attended postures were evaluated. Usually, animals tend to stay in the closed arms, anxiolytic treatment results in an increment of the time spent on the open arms of the maze (Pellow et al. (1985). Validation of open: closed arm entries in an elevated plus-maze as a measure of anxiety in the rat. J. Neurosci. Methods, 14(3), 149-167; Walf et al. (2007). The use of the elevated plus maze as an assay of anxiety-related behavior in rodents. Nat. Protoc., 2(2), 322-328)."}, "mGluR5 (GRM5)": {"system": "mGluR5 (GRM5)", "assay": "HEK 293 cells mGluR5-luciferase reporter assay (β-arrestin2 recruitment)", "format": "cell-based, human", "settings": "+ 1 mM CHPG", "excerpt": "The methodology was previously described by Kroeze (Kroeze et al. (2015). PRESTO-Tango as an open-source resource for interrogation of the druggable human GPCRome. Nat. Struct. Mol. Biol. 22(5): 362) and the principle is illustrated in FIG. 19. Briefly, the cells of HEK293 cell line are transfected with 3 types of plasmids:\nPlasmid 1: encodes fusion GRMS-tTA protein. The linker between GRMS and tTA is sensitive to TEV-protease (www.addgene.org/66390/).\nPlasmid 2: encodes β-arrestin2/TEV-protease fusion protein (www.addgene.org/107245/).\nPlasmid 3: luciferase tTA reporter (www.addgene.org/64127/).\nSufficient quantities of fusion proteins were produced during 24 hours after transfection. mGluR5 (GRM5) activation by a selective agonist CHPG (SEQ ID NO: 18) (1) leads to recruiting of β-arrestin2/TEV-protease fusion protein (2), that cleaves the linker between GRM5 and tTA (3). Released tTA transcription factor (4) binds with its consensus sites in tTA luciferase reporter plasmid (5) that results in activation of luciferase expression. The activity of luciferase can be used to estimate the activity of mGluR5, and application of negative allosteric modulators of mGluR5 should lead to a dose-dependent decrease in luciferase activity in this system (FIG. 19).\nSufficient quantities of the plasmids were produced using standard applications before the experiment. HEK293 cells were co-transfected with three plasmids using polyethylenimine (PEI, 408727, Sigma-Aldrich, USA) 24 hours prior to agonists application. Transfected cells were treated with agonists/antagonists and incubated overnight (16 hours). Antagonists were introduced 10 minutes prior to agonists. Luciferase test was performed using Promega™ Luciferase Assay Systems Kit (PR-E1500, Promega, USA) according to the manufacturer's protocol.\nCHPG—orthosteric selective mGlu5 receptor agonist (HB0033, HelloBio, USA). […]"}, "[4]": {"settings": "MAP 4.5 mg/kg i.p., AFS, overall median 0.00"}}, "note": "Entries after “also recorded” stand apart in the source; their conditions may differ."}
{"smiles": "CNCCC(Oc1ccc(C(F)(F)F)cc1)c1ccccc1", "note": "(stereo not drawn) [Fluoxetine, fluoxetine]", "values": [{"measurement": "antidepressant-like properties in FST", "setting": "Sprague-Dawley rats", "value": "not observed"}]}
{"smiles": "N[C@@H](CCC(=O)[O-])C(=O)[O-].[Na+].[Na+]", "note": "[GluNa, sodium glutamate]", "values": [{"measurement": "intracellular [Ca^2+] levels vs buffer", "setting": "human mGluR5; 1 mM, CHO-mGluR5 cells", "value": "elevated intracellular [Ca^2+] levels"}]}
{"smiles": "CNCCCC12CCC(c3ccccc31)c1ccccc12", "note": "[MAP, Maprotiline]", "values": [{"measurement": "suppression of stress CS levels in serum by DXM", "setting": "Wistar rats [1]", "value": "more than 50%"}, {"measurement": "freezing behavior vs stressed saline-treated animals", "setting": "Wistar rats [2]", "value": "significant reduction of freezing behavior"}, {"measurement": "proportion of animals that went to the open arms of the maze", "setting": "Wistar rats [3]; 4.5 mg/kg i.p. daily, after AFS", "value": 78, "unit": "%"}, {"measurement": "time in open arms <=Median: obs. − exp.", "setting": "Wistar rats [3]; MAP 4.5 mg/kg i.p., AFS", "value": "−2.86"}, {"measurement": "time in open arms >Median: obs. − exp.", "setting": "Wistar rats [3]; MAP 4.5 mg/kg i.p., AFS", "value": 2.86}, {"measurement": "time in open arms <=Median: observed (animals)", "setting": "Wistar rats [3]; [4]", "value": 2.00}, {"measurement": "time in open arms >Median: observed (animals)", "setting": "Wistar rats [3]; [4]", "value": 7.00}]}
{"smiles": "Cc1cccc(C#Cc2ccccc2)n1", "note": "[MPEP, 2-methyl-6-(phenylethynyl)-pyridine]", "values": [{"measurement": "effect on GluNa-induced activation", "setting": "human mGluR5; pre-treatment 0.1, 1, 10, 100 μM, 1 mM GluNa", "value": "abolished GluNa-induced activation"}]}
{"smiles": "Cc1ccc(O)c(N=Nc2ccccc2)n1", "note": "[SIB 1757]", "values": [{"measurement": "effect on CHPG-induced mGluR5 activity (luciferase signal)", "setting": "mGluR5 (GRM5); 10 μM", "value": "inhibition of mGluR5 activity; also recorded: significant decrease of luciferase signal"}, {"measurement": "effect on CHPG-induced mGluR5 activity (luciferase signal)", "setting": "mGluR5 (GRM5); 100 μM", "value": "inhibition of mGluR5 activity"}]}
